Source: patent US20260262643A1, “HERBICIDAL BENZOXAZINES” (FMC CORPORATION, priority 2022, published 2026)

Legend:
soybean [1] = assay: Test C preemergence; assay type: in vivo, Glycine max
In short: (§1)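 Visual injury ratings on a 0–100 scale (100 = complete control) were made against untreated controls 10 days after treatment in the greenhouse. Compounds, formulated with surfactant in non-phytotoxic solvent, were sprayed on soil preemergence or onto one- to two-leaf plants 2–10 cm tall postemergence.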

ryegrass, Italian [2] = assay: Test C postemergence; assay type: in vivo, Lolium multiflorum; details: 10 days, 0 to 100 scale (0 no effect, 100 complete control)
In short: as §1

kochia [3] = assay: Test C postemergence; assay type: in vivo, Bassia scoparia; details: 10 days, 0 to 100 scale (0 no effect, 100 complete control)
In short: as §1

kochia [4] = assay: Test C preemergence; assay type: in vivo, Bassia scoparia
In short: as §1

barnyardgrass [5] = assay: Test D flooded paddy test; assay type: in vivo, Echinochloa crus-galli; details: 250 g ai/ha, applied to paddy water, visual rating after 13 to 14 days, scale 0 to 100 (0 no effect, 100 complete control)
In short: (§2)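 Plants at the 2-leaf stage were grown in pots flooded to 3 cm, and compound was applied directly into the paddy water, with depth kept throughout. After 13–14 days in a greenhouse, injury was rated visually against untreated controls on a 0–100 scale (100 = complete control); a dash means not tested.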

wheat [6] = assay: Test C preemergence; assay type: in vivo, Triticum aestivum
In short: as §1

foxtail, giant [7] = assay: Test C postemergence; assay type: in vivo, Setaria faberi; details: 10 days, 0 to 100 scale (0 no effect, 100 complete control)
In short: as §1

horseweed = assay: Test C postemergence; assay type: in vivo, Erigeron canadensis; details: 10 days, 0 to 100 scale (0 no effect, 100 complete control)
In short: as §1

blackgrass [8] = assay: Test C postemergence; assay type: in vivo, Alopecurus myosuroides; details: 10 days, 0 to 100 scale (0 no effect, 100 complete control)
In short: as §1

blackgrass [9] = assay: Test C preemergence; assay type: in vivo, Alopecurus myosuroides
In short: as §1

oat, wild [10] = assay: Test C postemergence; assay type: in vivo, Avena fatua; details: 10 days, 0 to 100 scale (0 no effect, 100 complete control)
In short: as §1

barnyardgrass [11] = assay: Test C postemergence; assay type: in vivo, Echinochloa crusgalli; details: 10 days, 0 to 100 scale (0 no effect, 100 complete control)
In short: as §1

ducksalad = assay: Test D flooded paddy test; assay type: in vivo, Heteranthera limosa; details: 250 g ai/ha, applied to paddy water, visual rating after 13 to 14 days, scale 0 to 100 (0 no effect, 100 complete control)
In short: as §2

pigweed, palmer [12] = assay: Test C preemergence; assay type: in vivo, Amaranthus palmeri
In short: as §1

corn [13] = assay: Test C postemergence; assay type: in vivo, Zea mays; details: 10 days, 0 to 100 scale (0 no effect, 100 complete control)
In short: as §1

galium = assay: Test C postemergence; assay type: in vivo, Galium aparine; details: 10 days, 0 to 100 scale (0 no effect, 100 complete control)
In short: as §1

oat, wild [14] = assay: Test C preemergence; assay type: in vivo, Avena fatua
In short: as §1

sedge, umbrella = assay: Test D flooded paddy test; assay type: in vivo, Cyperus difformis; details: 250 g ai/ha, applied to paddy water, visual rating after 13 to 14 days, scale 0 to 100 (0 no effect, 100 complete control)
In short: as §2

rice = assay: Test D flooded paddy test; assay type: in vivo, Oryza sativa; details: 250 g ai/ha, applied to paddy water, visual rating after 13 to 14 days, scale 0 to 100 (0 no effect, 100 complete control)
In short: as §2

ryegrass, Italian [15] = assay: Test C preemergence; assay type: in vivo, Lolium multiflorum
In short: as §1

foxtail, giant [16] = assay: Test C preemergence; assay type: in vivo, Setaria faberi
In short: as §1

ragweed [17] = assay: Test C postemergence; assay type: in vivo, Ambrosia artemisiifolia; details: 10 days, 0 to 100 scale (0 no effect, 100 complete control)
In short: as §1

wheat [18] = assay: Test C postemergence; assay type: in vivo, Triticum aestivum; details: 10 days, 0 to 100 scale (0 no effect, 100 complete control)
In short: as §1

corn [19] = assay: Test C preemergence; assay type: in vivo, Zea mays
In short: as §1

pigweed, palmer [20] = assay: Test C postemergence; assay type: in vivo, Amaranthus palmeri; details: 10 days, 0 to 100 scale (0 no effect, 100 complete control)
In short: as §1

barnyardgrass [21] = assay: Test C preemergence; assay type: in vivo, Echinochloa crusgalli
In short: as §1

soybean [22] = assay: Test C postemergence; assay type: in vivo, Glycine max; details: 10 days, 0 to 100 scale (0 no effect, 100 complete control)
In short: as §1

ragweed [23] = assay: Test C preemergence; assay type: in vivo, Ambrosia artemisiifolia
In short: as §1

[24] = 500 g ai/ha, preemergence, 0 to 100 scale (0 no effect, 100 complete control)
[25] = Preemergence, 125 g ai/ha, 0 to 100 scale, 0 no effect, 100 complete control

CCc1ncn(-c2cccc(C(=O)N3CC(C(F)(F)F)Oc4c(C)cccc43)c2)n1 (stereo not shown) [Compound 344]
Soybean plant response rating (soybean [1]; [24]): 50
Plant response rating, Soybean (soybean [1]; [25]): 0
Plant response rating, Ryegrass, Italian (ryegrass, Italian [2]; 500 g ai/ha, postemergence): 100
Plant response rating, Ryegrass, Italian (ryegrass, Italian [2]; Postemergence, 125 g ai/ha): 80
Plant response rating, Kochia (kochia [3]; 500 g ai/ha, postemergence): 80
Plant response rating, Kochia (kochia [3]; Postemergence, 125 g ai/ha): 70
Kochia plant response rating (kochia [4]; [24]): 100
Plant response rating, Kochia (kochia [4]; [25]): 60
Plant response rating, Barnyardgrass (Flood) (barnyardgrass [5]): 25
Wheat plant response rating (wheat [6]; [24]): 80
Plant response rating, Wheat (wheat [6]; [25]): 40
Plant response rating, Foxtail, Giant (foxtail, giant [7]; 500 g ai/ha, postemergence): 90
Plant response rating, Foxtail, Giant (foxtail, giant [7]; Postemergence, 125 g ai/ha): 70
Plant response rating, Horseweed (horseweed; 500 g ai/ha, postemergence): 30
Plant response rating, Horseweed (horseweed; Postemergence, 125 g ai/ha): 30
Plant response rating, Blackgrass (blackgrass [8]; 500 g ai/ha, postemergence): 90
Plant response rating, Blackgrass (blackgrass [8]; Postemergence, 125 g ai/ha): 80
Blackgrass plant response rating (blackgrass [9]; [24]): 100
Plant response rating, Blackgrass (blackgrass [9]; [25]): 90
Plant response rating, Oat, Wild (oat, wild [10]; 500 g ai/ha, postemergence): 90
Plant response rating, Oat, Wild (oat, wild [10]; Postemergence, 125 g ai/ha): 60
Plant response rating, Barnyardgrass (barnyardgrass [11]; 500 g ai/ha, postemergence): 70
Plant response rating, Barnyardgrass (barnyardgrass [11]; Postemergence, 125 g ai/ha): 40
Plant response rating, Ducksalad (Flood) (ducksalad): 30
Pigweed, Palmer plant response rating (pigweed, palmer [12]; [24]): 100
Plant response rating, Pigweed, Palmer (pigweed, palmer [12]; [25]): 90
Plant response rating, Corn (corn [13]; 500 g ai/ha, postemergence): 90
Plant response rating, Corn (corn [13]; Postemergence, 125 g ai/ha): 30
Plant response rating, Galium (galium; 500 g ai/ha, postemergence): 100
Plant response rating, Galium (galium; Postemergence, 125 g ai/ha): 90
Oat, Wild plant response rating (oat, wild [14]; [24]): 90
Plant response rating, Oat, Wild (oat, wild [14]; [25]): 0
Plant response rating, Sedge, Umbrella (Flood) (sedge, umbrella): 70
Plant response rating, Rice (Flood) (rice): 0
Ryegrass, Italian plant response rating (ryegrass, Italian [15]; [24]): 100
Plant response rating, Ryegrass, Italian (ryegrass, Italian [15]; [25]): 90
Foxtail, Giant plant response rating (foxtail, giant [16]; [24]): 100
Plant response rating, Foxtail, Giant (foxtail, giant [16]; [25]): 100
Plant response rating, Ragweed (ragweed [17]; 500 g ai/ha, postemergence): 70
Plant response rating, Ragweed (ragweed [17]; Postemergence, 125 g ai/ha): 70
Plant response rating, Wheat (wheat [18]; 500 g ai/ha, postemergence): 80
Plant response rating, Wheat (wheat [18]; Postemergence, 125 g ai/ha): 30
Corn plant response rating (corn [19]; [24]): 30
Plant response rating, Corn (corn [19]; [25]): 20
Plant response rating, Pigweed, Palmer (pigweed, palmer [20]; 500 g ai/ha, postemergence): 40
Plant response rating, Pigweed, Palmer (pigweed, palmer [20]; Postemergence, 125 g ai/ha): 20
Barnyardgrass plant response rating (barnyardgrass [21]; [24]): 100
Plant response rating, Barnyardgrass (barnyardgrass [21]; [25]): 80
Plant response rating, Soybean (soybean [22]; 500 g ai/ha, postemergence): 100
Plant response rating, Soybean (soybean [22]; Postemergence, 125 g ai/ha): 80
Ragweed plant response rating (ragweed [23]; [24]): 50
Plant response rating, Ragweed (ragweed [23]; [25]): 0
